Here are results for one molecule from paper PMC6400584, “Activation mechanism of ATP-sensitive K^+ channels explored with real-time nucleotide binding” (eLife, 2019).

One assay has as its target T1, SUR1-Y1353^stop/Kir6.2 (Homo sapiens, UniProt Q09428+Q14654).
T1 construct: expressed in transfected cells; host or cells: HEK-293T
T1 sequence (Q09428 1-1352): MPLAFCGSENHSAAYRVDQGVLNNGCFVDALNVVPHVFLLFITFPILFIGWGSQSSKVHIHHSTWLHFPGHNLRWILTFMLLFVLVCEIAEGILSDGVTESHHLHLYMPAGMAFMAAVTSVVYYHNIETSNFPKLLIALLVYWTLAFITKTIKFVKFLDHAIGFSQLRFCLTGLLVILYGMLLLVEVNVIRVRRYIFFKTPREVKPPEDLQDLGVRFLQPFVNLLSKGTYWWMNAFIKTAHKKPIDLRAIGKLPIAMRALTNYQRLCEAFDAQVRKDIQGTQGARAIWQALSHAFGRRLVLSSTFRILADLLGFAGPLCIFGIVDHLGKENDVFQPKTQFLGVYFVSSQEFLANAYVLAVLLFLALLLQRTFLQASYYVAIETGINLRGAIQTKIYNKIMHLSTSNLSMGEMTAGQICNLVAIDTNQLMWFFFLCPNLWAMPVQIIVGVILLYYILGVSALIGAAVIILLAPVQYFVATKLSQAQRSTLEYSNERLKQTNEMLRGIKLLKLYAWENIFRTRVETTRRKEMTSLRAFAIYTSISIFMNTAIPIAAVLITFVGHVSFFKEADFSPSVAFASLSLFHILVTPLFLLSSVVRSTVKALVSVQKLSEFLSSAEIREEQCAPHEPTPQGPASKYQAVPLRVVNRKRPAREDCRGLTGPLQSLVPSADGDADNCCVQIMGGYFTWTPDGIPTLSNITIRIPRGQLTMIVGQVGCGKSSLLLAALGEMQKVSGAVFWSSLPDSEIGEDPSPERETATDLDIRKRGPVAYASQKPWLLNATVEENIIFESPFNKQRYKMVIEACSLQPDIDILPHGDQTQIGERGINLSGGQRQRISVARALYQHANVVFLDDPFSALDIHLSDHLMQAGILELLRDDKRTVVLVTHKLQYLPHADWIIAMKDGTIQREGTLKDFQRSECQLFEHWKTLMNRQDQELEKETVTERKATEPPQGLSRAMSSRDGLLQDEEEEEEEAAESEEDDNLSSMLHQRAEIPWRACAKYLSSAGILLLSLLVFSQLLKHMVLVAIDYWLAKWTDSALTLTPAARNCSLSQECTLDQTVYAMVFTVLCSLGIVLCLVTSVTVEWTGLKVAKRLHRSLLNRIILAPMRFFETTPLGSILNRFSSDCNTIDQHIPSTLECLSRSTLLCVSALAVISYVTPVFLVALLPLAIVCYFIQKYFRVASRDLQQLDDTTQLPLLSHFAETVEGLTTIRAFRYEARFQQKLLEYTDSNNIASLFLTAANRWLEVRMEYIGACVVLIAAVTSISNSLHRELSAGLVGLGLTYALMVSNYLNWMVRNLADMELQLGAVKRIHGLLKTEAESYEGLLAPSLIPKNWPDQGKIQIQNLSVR
T1 sequence (Q14654 1-390): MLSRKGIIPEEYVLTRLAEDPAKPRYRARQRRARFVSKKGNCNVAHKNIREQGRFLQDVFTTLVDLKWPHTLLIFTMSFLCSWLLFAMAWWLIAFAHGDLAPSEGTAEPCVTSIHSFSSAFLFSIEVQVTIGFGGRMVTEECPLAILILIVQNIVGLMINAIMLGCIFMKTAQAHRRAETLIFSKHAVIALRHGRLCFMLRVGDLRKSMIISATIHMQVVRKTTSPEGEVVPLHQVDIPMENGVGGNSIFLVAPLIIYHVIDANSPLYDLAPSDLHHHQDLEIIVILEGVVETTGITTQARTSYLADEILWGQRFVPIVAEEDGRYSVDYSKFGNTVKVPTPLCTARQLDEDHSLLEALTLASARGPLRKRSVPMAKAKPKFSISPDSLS
The experiment in a line: Current response to 100 μM nucleotide relative to nucleotide-free solution, inside-out patches. Particulars: truncated SUR1-Y1353^stop. The format is biochemical. On the procedure:
(§1) Currents were recorded from inside-out membrane patches excised from transfected HEK-293T cells. Pipettes were pulled to a resistance of 1–5 MΩ and filled with an extracellular solution containing (in mM) 140 KCl, 1.2 MgCl2, 2.6 CaCl2, and 10 HEPES, pH 7.4 or 140 KCl, 1 EGTA, 10 HEPES, pH 7.3. The intracellular (bath) solutions contained either (in mM) 107 KCl, 2 MgCl2, 1 CaCl2, 10 EGTA, and 10 HEPES, pH 7.2 for experiments showing nucleotide-dependent activation or 140 KCl, 1 EDTA, 1 EGTA, 10 HEPES pH 7.3 for experiments showing nucleotide-dependent inhibition. Nucleotides were added as indicated. Patches were perfused with an 8-channel µFlow perfusion system. Data were acquired at a holding potential of −60 mV using an Axopatch 200B amplifier and Digidata 1322A digitizer with pClamp 9.0 software (Molecular Devices). Currents were digitized at 10 kHz and low-pass filtered at 1 kHz. KATP channels run down in excised patches (reviewed by Proks et al.) ([Proks et al., 2016]). For inhibitory concentration-response relationships, rundown was corrected by alternating test nucleotide solutions with nucleotide-free (control) solutions and expressing the test currents as a fraction of the average of the control currents before and after the test solution. […]

For the next assay, the target named is T2, 3xFLAG_SUR1/Kir6.2 (Homo sapiens, UniProt Q09428+Q14654, INS1042[…]).
T2 construct: expressed in transfected cells; host or cells: HEK-293T
T2 sequence (Q09428 with tags, fused parts or gaps INS1042[withheld], one chain of several): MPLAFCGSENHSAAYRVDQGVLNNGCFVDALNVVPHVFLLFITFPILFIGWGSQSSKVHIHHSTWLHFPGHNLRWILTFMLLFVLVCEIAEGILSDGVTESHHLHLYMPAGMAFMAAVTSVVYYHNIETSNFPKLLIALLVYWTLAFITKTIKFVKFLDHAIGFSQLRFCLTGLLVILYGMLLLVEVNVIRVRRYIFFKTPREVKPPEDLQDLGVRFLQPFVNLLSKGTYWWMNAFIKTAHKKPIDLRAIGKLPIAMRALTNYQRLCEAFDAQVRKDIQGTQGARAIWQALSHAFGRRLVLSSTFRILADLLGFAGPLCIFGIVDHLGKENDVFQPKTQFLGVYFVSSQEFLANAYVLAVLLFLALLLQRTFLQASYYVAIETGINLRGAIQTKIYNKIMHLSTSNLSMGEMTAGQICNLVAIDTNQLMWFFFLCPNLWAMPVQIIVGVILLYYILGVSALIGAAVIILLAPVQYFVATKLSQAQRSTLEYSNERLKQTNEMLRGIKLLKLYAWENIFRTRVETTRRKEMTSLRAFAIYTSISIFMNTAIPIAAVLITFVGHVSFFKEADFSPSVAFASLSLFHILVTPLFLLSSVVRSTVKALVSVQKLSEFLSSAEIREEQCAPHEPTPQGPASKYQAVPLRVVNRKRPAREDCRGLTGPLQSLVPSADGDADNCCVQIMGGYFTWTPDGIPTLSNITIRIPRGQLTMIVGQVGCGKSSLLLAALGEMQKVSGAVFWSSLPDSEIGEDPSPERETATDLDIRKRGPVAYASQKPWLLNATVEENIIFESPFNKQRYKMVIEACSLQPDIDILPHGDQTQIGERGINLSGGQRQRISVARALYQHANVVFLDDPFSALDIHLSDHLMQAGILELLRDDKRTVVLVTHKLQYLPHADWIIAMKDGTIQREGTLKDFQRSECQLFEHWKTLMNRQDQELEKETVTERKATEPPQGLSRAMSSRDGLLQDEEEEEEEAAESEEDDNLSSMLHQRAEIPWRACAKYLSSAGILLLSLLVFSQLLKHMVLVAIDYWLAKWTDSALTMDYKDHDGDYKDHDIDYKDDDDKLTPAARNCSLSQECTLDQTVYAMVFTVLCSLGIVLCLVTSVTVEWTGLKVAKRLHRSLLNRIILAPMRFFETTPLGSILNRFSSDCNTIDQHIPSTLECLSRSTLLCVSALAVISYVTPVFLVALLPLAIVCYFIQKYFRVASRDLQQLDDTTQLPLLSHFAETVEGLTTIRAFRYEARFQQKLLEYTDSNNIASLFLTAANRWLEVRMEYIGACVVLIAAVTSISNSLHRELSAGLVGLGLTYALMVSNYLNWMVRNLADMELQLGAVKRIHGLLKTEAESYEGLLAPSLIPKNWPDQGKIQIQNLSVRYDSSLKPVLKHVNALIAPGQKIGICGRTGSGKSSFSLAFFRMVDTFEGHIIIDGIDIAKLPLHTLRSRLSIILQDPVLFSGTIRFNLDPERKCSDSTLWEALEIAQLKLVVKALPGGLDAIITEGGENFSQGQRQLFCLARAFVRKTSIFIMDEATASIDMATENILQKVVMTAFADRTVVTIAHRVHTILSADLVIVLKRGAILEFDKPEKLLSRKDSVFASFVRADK
The assay is described as above. The format is biochemical. Here is the method:
as §1

The subject of the next assay is T3, SUR1-T1397*/Kir6.2-G334D.
T3 construct: confirmed that >95% of SUR1-T1397* was full length; expressed in transfected cells; host or cells: HEK-293T
As to the kind of experiment: Current activation in inside-out patches. The format is biochemical, Homo sapiens. Here is the method: as §1

The target in assay [1] is T4, SUR1/Kir6.2-G334D (Homo sapiens, UniProt Q09428).
T4 construct: expressed in transfected cells; host or cells: HEK-293T
T4 sequence (Q09428 whole entry, stated change not applied): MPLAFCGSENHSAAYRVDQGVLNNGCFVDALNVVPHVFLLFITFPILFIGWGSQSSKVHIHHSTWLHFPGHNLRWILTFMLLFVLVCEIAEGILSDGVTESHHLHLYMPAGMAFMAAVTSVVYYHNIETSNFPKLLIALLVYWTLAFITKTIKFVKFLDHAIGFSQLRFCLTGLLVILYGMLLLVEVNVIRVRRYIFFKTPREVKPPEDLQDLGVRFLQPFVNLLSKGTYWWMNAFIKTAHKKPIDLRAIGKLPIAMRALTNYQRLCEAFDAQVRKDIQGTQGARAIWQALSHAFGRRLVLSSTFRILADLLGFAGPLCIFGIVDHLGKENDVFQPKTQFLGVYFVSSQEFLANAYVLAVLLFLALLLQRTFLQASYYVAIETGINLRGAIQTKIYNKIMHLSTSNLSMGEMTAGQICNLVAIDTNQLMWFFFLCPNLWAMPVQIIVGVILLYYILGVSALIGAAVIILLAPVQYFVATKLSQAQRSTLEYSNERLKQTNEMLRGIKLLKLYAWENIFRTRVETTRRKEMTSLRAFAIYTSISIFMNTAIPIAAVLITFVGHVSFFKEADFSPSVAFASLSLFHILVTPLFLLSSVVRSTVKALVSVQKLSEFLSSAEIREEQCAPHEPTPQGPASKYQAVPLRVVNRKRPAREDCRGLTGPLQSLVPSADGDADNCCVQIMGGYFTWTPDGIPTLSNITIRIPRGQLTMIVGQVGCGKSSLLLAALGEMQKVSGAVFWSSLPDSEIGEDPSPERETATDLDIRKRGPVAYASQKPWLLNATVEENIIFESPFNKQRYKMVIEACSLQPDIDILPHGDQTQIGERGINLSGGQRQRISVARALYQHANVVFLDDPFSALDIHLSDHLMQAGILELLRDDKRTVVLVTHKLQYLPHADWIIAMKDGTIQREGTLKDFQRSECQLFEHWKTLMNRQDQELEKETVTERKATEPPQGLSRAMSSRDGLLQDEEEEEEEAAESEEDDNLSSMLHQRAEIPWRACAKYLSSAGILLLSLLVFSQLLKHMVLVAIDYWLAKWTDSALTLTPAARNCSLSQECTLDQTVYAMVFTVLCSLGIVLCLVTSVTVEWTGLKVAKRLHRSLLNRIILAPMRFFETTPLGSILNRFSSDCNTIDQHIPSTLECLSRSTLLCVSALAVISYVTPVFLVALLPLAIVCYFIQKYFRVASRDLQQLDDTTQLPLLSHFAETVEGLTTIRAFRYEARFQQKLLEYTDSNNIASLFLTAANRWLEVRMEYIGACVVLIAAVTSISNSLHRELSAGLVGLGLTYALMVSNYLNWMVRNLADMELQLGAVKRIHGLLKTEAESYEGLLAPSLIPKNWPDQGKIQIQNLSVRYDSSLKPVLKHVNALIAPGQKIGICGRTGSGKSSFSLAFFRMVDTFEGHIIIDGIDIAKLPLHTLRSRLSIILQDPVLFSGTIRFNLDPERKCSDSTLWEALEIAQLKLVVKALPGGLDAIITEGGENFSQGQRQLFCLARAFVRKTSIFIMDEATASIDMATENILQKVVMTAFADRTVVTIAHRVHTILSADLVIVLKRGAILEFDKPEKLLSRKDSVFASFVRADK
T4 sequence (Q14654 whole entry G334D partner): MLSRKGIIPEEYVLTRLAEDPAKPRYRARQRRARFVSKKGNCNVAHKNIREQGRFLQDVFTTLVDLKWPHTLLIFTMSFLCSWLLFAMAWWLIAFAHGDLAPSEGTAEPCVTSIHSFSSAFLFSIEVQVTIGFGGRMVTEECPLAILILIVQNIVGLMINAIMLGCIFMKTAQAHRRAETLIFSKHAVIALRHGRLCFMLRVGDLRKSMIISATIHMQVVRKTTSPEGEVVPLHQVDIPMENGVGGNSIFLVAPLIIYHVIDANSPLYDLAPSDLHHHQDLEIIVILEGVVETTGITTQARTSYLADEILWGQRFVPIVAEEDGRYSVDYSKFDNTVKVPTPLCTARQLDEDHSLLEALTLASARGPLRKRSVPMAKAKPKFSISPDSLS
The experiment in a line: Current activation in inside-out patches. The class given is biochemical. Here is the method:
as §1

Assay [2] deals with SUR1/Kir6.2-G334D with K1384A (K2A) in NBS2. Details: method as in Proks et al., 2014. To be noted: ref Proks et al., 2014; cited from earlier work.
Assay [3] concerns the target T4, SUR1/Kir6.2-G334D. Details: method as in Proks et al., 2010. To be noted: ref Proks et al., 2010; read-out: EC50 for activation of currents; cited from earlier work.

Turning to `Nc1ncnc2c1ncn2[C@@H]1O[C@H](COP(=O)([O-])OP(=O)([O-])O)[C@@H](O)[C@H]1O.[Mg+2]` [MgADP], on SUR1-Y1353^stop/Kir6.2, the inhibition of current is 59%. In addition, the “increase of current over nucleotide-free control” value on 3xFLAG_SUR1/Kir6.2 is recorded as 3.6 fold. Also, the EC50 (usually the concentration needed to bring the measured effect to its halfway point) with SUR1-T1397*/Kir6.2-G334D (Equation 5 fit to combined data) is 38.6 µM; in the assay with SUR1-T1397*/Kir6.2-G334D (mean ± SEM of fits of equation 5 to individual experiments), 44.4 ± 14.5 µM; on SUR1/Kir6.2-G334D [3] it was 7.7 µM. Also, on SUR1/Kir6.2-G334D [1], the effect on currents entry is on record as “activated”. Besides, in assay [2], the “shift of concentration dependence of activation to higher concentrations by K2A mutation” value is reported as > 20 fold.
